Experimental data published in publication PMC4702177, “Discovering new mTOR inhibitors for cancer treatment through virtual screening methods and in vitro assays” (Scientific Reports, 2016).
Entries after “also recorded” stand apart in the source; their conditions may differ.

Legend:
[1] = tested on: caspase-3 activation and PARP cleavage in HeLa cells; assay: Western blot of apoptosis markers; assay type: cell-based, human; details: 24 h, compared with control
Method: To elucidate the mechanisms of cell death induced by 17, we analyzed the effect of 17 on nuclear morphology using Hoechst 33342 staining. […] This observation allowed for clear discrimination of treated cells from untreated non-apoptotic HeLa cells, which have a normal, round, and unpunctuated nucleus. […] The percentage of apoptotic HeLa cells were 6.5% and 7.7% at the concentrations of 2.74 and 5.48 μM, respectively (Fig. 6d). To further confirm the nuclear morphology observation, Western blotting was used to detect caspase-3 activation and PARP cleavage, two biochemical markers of apoptosis. […] The induction of apoptosis is positively correlated with the concentration of compound 17.
[…] Samples were prepared by lysing PBS-washed cells with RIPA buffer (Beyotime, Haimen, China) consisting of 1% Nonidet P-40, 0.5% sodium deoxycholate, 0.1% SDS, and 50 mM Tris-HCl, pH 7.4, supplemented with NaF, NaVO4, EDTA and a protease inhibitor cocktail (Roche). Proteins were subjected to SDS-PAGE gel electrophoresis and transferred onto a polyvinylidene difluoride membrane (Hybond-P; GE Healthcare Life Sciences, Piscataway, NJ). […] The densitometry of each band was quantified by FluorChem 8000 (AlphaInnotech, San Leandro, CA).

[2] = tested on: HeLa cells; assay: Cell cycle analysis by flow cytometry; assay type: cell-based, human; details: 2.74 and 5.48 μM, 24 hours
Method: To further explore the mechanism of cell growth inhibition by compound 17, we examined the effects of compound 17 on cell cycle distribution in HeLa cells using flow cytometry.
Cells cycle distribution was analyzed as previously described. In brief, HeLa cells (1.5 × 10^4/well) seeded in six-well plates were incubated with compound 17 for 24 h. Then, the cells were collected, washed twice with phosphate-buffered saline (PBS), and fixed in 70% cold ethanol at −20 °C overnight. Finally, the samples were stained with 50 μg/mL propidium iodide and 30 μg/mL of RNase A at 37 °C for 1 h. DNA content data were acquired using CELLQuest software on a flow cytometer (FACSCalibur; Becton Dickinson, Mountain View, CA, USA).

[3] = tested on: mTORC1 (phosphorylation of p70S6K and 4E-BP1) in HeLa cells; assay: Western blot of mTORC1 activity; assay type: cell-based, human; details: 2.47 and 5.48 μM
Method: In vitro mTOR kinase assay confirmed that 17 did inhibit mTOR kinase activity (Table 1). The mTOR pathway is frequently activated in human cancers (e.g., HeLa and MCF-7). To assure compound 17 inhibits the mTOR pathway inside the cell, western blotting was employed to check the activity of mTORC1 (Complex 1) and mTORC2 (Complex 2). HeLa cell line was selected for western blot analysis after treatment with compound 17 at 2.47 and 5.48 μM; detailed results are shown in Fig. 8.
mTORC1 activity was evaluated by determining the phosphorylation level of its targets, p70S6K and 4E-BP1, in the HeLa cell line. […] Quantitative of the phosphorylation levels of p70SK6 and 4E-BP1 are […] with the concentration of 17 (Fig. 8).
(§1) HeLa cells were cultured in a six-well plate in the presence of compound 17 for 48 h. Samples were prepared by lysing PBS-washed cells with RIPA buffer (Beyotime, Haimen, China) consisting of 1% Nonidet P-40, 0.5% sodium deoxycholate, 0.1% SDS, and 50 mM Tris-HCl, pH 7.4, supplemented with NaF, NaVO4, EDTA and a protease inhibitor cocktail (Roche). Proteins were subjected to SDS-PAGE gel electrophoresis and transferred onto a polyvinylidene difluoride membrane (Hybond-P; GE Healthcare Life Sciences, Piscataway, NJ). […] The densitometry of each band was quantified by FluorChem 8000 (AlphaInnotech, San Leandro, CA).

[4] = tested on: PI3K pathway (Akt phosphorylation on Thr308) in HeLa cells; assay: Western blot of PI3K pathway; assay type: cell-based, human; details: compared with the controls
Method: To evaluate whether compound 17 inhibits the PI3K pathway, the Akt phosphorylation level on Thr308 was determined.
as §1, with “NJ). Immunoblotting was performed using rabbit monoclonal antibodies (Cell Signaling Technology; Danvers, MA) against p70S6K1 phosphorylated on Thr 389 (#9234) and total p70S6K1 (#2708), 4E-BP1 phosphorylated on Thr 37 (#2855) and total 4E-BP1 (#9452), Akt phosphorylated on Thr 308 (#4056) or Ser 473 (#4060) and total Akt (#4685), cleaved caspase-3 (#9664), PARP (#9532), and β-actin (#3700).” for “NJ).”

[5] = biological target: AKT1 (PKB alpha) (Homo sapiens, UniProt P31749); assay: SelectScreen kinase profiling; assay type: biochemical; details: mean ± SD of triplicate
Text: (§2) To characterize the kinase selectivity of compound 17, we profiled its ability to bind to a panel of 24 structurally related kinases using the SelectScreen Kinase Profiling Service (Life Technologies Corporation, Madison, WI).

[6] = biological target: AKT3 (PKB gamma) (Homo sapiens, UniProt Q9Y243); assay: SelectScreen kinase profiling; assay type: biochemical; details: mean ± SD of triplicate
Text: as §2

[7] = biological target: AMPK A1/B1/G1 (Homo sapiens, UniProt Q13131); assay: SelectScreen kinase profiling; assay type: biochemical; details: mean ± SD of triplicate
Text: as §2

[8] = biological target: AMPK A2/B1/G1 (Homo sapiens, UniProt P54646); assay: SelectScreen kinase profiling; assay type: biochemical; details: mean ± SD of triplicate
Text: as §2

[9] = biological target: CDK1/cyclin B (Homo sapiens, UniProt P06493); assay: SelectScreen kinase profiling; assay type: biochemical; details: mean ± SD of triplicate
Text: as §2

[10] = biological target: PIK3C3 (hVPS34) (Homo sapiens, UniProt Q8NEB9); assay: SelectScreen kinase profiling; assay type: biochemical; details: mean ± SD of triplicate
Text: as §2

[11] = biological target: PIK3CA/PIK3R1 (p110 alpha/p85 alpha) (Homo sapiens, UniProt P42336); assay: SelectScreen kinase profiling; assay type: biochemical; details: mean ± SD of triplicate
Text: as §2

[12] = biological target: PRKCB2 (PKC beta II) (Homo sapiens, UniProt P05771); assay: SelectScreen kinase profiling; assay type: biochemical; details: mean ± SD of triplicate
Text: as §2

[13] = biological target: PRKCD (PKC delta) (Homo sapiens, UniProt Q05655); assay: SelectScreen kinase profiling; assay type: biochemical; details: mean ± SD of triplicate
Text: as §2

[14] = biological target: RPS6KB1 (p70S6K) (Homo sapiens, UniProt P23443); assay: SelectScreen kinase profiling; assay type: biochemical; details: mean ± SD of triplicate
Text: as §2

Sequence of AKT1 (PKB alpha) (P31749 whole entry): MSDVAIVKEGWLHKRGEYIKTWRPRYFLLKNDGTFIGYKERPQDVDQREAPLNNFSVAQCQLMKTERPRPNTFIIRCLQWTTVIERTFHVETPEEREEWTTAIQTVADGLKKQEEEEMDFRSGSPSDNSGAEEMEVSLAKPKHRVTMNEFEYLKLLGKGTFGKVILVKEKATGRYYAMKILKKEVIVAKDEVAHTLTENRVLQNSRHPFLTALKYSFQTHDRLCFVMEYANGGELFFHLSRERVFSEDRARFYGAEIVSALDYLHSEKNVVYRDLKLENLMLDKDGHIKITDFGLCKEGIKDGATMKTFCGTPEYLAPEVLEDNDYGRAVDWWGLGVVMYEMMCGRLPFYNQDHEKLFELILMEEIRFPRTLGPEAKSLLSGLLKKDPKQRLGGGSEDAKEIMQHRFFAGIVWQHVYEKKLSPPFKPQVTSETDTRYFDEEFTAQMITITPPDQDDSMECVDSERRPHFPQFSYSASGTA
Sequence of PIK3CA/PIK3R1 (p110 alpha/p85 alpha) (P42336 whole entry): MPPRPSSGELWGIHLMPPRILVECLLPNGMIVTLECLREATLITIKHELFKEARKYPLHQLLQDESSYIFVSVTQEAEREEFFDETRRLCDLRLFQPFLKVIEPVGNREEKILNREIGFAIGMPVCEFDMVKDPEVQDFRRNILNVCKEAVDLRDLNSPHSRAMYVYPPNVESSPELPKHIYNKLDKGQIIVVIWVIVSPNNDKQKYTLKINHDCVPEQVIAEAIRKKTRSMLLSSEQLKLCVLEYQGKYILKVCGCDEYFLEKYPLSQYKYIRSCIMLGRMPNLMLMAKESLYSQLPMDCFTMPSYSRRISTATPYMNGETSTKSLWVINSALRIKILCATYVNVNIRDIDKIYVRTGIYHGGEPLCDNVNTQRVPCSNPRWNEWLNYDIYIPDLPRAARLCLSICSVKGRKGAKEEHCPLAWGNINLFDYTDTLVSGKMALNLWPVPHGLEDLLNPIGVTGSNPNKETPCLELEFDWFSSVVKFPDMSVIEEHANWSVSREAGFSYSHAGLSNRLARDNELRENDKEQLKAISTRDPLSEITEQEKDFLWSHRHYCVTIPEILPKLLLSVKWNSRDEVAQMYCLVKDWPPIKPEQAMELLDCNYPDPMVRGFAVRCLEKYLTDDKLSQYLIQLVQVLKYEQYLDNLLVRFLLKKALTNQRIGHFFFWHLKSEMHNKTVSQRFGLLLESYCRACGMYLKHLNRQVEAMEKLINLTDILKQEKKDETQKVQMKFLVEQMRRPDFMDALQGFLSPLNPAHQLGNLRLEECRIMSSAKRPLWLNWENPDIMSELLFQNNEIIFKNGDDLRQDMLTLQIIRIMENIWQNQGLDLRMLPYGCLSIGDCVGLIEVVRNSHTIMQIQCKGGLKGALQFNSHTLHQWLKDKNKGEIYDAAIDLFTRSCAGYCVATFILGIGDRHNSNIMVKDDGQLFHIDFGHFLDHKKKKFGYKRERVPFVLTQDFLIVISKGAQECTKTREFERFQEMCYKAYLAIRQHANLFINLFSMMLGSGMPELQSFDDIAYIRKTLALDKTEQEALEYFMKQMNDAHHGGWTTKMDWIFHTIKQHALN
Sequence of PIK3CA/PIK3R1 (p110 alpha/p85 alpha) (P27986 whole entry partner): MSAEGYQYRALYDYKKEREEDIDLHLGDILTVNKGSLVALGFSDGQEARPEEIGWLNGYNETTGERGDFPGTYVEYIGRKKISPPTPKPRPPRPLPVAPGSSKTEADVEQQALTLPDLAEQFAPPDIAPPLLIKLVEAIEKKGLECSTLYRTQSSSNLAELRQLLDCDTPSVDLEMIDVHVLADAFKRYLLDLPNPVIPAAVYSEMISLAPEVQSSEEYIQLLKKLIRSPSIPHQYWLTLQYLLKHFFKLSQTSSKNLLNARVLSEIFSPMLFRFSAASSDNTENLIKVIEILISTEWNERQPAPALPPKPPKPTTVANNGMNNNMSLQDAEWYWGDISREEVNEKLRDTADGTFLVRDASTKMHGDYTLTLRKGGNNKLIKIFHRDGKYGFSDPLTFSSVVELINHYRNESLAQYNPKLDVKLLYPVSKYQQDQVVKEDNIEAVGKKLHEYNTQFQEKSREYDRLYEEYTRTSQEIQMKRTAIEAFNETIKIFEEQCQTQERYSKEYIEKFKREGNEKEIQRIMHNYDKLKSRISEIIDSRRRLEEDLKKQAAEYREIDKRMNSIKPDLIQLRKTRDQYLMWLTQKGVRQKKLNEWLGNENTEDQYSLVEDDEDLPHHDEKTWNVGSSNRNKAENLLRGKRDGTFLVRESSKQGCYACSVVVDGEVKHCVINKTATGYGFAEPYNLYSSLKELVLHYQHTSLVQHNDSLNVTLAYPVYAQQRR
Sequence of PRKCD (PKC delta) (Q05655 whole entry): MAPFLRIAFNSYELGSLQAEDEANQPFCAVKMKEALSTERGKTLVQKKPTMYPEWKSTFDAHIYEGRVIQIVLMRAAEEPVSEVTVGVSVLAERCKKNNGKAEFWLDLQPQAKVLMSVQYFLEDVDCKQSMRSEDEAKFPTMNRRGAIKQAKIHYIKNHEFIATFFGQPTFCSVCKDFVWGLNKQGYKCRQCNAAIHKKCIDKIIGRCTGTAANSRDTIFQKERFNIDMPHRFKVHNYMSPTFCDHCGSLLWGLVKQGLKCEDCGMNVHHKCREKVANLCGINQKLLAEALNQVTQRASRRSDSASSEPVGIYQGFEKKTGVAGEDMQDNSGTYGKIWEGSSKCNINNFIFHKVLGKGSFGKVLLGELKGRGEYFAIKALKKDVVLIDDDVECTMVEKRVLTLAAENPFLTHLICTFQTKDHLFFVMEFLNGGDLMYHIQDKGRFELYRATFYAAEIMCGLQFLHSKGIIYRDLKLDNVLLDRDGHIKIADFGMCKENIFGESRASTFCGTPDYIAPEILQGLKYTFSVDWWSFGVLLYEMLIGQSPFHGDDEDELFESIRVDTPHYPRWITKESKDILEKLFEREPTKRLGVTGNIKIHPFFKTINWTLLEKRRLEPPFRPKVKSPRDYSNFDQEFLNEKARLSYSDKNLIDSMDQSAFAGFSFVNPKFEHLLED
Sequence of PRKCB2 (PKC beta II) (P05771 1-673 isoform P05771-2): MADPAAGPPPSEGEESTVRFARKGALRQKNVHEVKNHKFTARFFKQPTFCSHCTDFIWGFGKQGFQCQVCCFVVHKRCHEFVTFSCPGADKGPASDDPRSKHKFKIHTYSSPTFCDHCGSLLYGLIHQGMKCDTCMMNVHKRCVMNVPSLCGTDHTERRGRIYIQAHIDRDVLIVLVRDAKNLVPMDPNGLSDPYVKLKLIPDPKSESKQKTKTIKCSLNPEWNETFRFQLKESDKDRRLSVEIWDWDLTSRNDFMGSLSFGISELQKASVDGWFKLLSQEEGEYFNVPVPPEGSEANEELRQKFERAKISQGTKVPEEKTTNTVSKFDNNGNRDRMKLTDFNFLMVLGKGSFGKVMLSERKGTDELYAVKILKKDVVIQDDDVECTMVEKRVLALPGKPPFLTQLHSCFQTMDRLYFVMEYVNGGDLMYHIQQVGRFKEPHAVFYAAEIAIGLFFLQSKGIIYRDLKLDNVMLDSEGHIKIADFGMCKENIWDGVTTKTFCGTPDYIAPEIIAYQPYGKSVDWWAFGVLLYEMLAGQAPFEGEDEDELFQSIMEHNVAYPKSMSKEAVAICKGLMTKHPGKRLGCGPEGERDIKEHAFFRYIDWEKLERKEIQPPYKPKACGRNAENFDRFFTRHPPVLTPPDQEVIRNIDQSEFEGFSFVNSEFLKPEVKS
Sequence of AMPK A1/B1/G1 (Q13131 whole entry): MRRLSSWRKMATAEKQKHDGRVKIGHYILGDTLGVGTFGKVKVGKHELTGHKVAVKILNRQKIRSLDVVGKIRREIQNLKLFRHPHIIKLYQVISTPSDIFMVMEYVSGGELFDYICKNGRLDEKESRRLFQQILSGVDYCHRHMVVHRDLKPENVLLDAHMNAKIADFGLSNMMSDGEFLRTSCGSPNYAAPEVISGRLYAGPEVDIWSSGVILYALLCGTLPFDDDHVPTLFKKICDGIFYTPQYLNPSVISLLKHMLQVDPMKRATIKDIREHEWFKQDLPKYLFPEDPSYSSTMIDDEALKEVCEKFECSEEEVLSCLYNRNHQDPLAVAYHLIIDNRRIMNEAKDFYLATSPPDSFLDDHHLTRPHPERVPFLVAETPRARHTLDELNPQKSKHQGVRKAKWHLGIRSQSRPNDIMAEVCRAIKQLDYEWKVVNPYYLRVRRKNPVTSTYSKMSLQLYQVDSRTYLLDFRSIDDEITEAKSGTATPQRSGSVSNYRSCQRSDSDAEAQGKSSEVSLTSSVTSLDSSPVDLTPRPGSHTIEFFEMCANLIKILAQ
Sequence of AMPK A1/B1/G1 (Q9Y478 whole entry partner): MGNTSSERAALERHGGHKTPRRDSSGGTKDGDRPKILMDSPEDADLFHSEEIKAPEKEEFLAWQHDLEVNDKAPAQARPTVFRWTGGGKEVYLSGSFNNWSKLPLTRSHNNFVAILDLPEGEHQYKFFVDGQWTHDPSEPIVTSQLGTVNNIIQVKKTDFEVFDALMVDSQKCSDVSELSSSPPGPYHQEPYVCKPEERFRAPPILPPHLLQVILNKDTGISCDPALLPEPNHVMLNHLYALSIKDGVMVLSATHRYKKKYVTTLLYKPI
Sequence of AMPK A1/B1/G1 (P54619 whole entry partner): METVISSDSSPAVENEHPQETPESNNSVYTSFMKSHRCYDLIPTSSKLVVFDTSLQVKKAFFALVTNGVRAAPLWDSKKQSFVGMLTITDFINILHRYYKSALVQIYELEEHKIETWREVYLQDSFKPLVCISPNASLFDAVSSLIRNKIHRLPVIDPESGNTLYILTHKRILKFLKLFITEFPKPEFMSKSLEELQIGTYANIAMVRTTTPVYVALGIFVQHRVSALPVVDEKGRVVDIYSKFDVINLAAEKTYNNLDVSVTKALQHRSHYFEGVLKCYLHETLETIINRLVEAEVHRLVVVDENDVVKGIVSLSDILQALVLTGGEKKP

Nc1nn2c(nc(N)c3c(N)n[nH]c32)c1/N=N/c1ccccc1 [Compound 17]
levels of cleaved (activated) caspase-3 and PARP [1]: markedly increased | cell cycle distribution [2]: arrests the cell cycle of HeLa at the G1/G0-phase; also recorded: induced an arrest of cell cycle at the G1/G0-phase | phosphorylation level of 4E-BP1 [3]: suppressed | phosphorylation level of p70S6K [3]: suppressed | P-Akt Thr308 [4]: not affected | inhibition at 10 µM [5]: 22.7 ± 9.34% | inhibition at 10 µM [6]: 11.7 ± 0.37% | inhibition at 10 µM [7]: 17 ± 3.47% | inhibition at 10 µM [8]: 33.8 ± 4.29% | inhibition at 10 µM [9]: 3.09 ± 2.31% | inhibition at 10 µM [10]: -6.75 ± 8.78% | inhibition at 10 µM [11]: 56.4 ± 4.16% | inhibition at 10 µM [12]: 17.7 ± 4.98% | inhibition at 10 µM [13]: -10.5 ± 9.55% | inhibition at 10 µM [14]: -1.25 ± 1.53%
